Experimental data reported in US20100298141A1, “SUBSTITUTED PYRIDINE N-OXIDE HERBICIDES” (E. I. DU PONT DE NEMOURS AND COMPANY, priority 2007, published 2010).

Legend:
broadleaf signalgrass = assay: Test F preemergence test; type: in vivo, Brachiaria platyphylla; settings: scale 0 to 100; for Plant response rating, Signalgrass: 31 g ai/ha
How it was run: (§1)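 Test chemicals were formulated in a non-phytotoxic solvent mixture with surfactant and applied preemergence to planted seeds or postemergence to sugarcane plants. Plants were kept in a greenhouse for 14 to 21 days, then visually evaluated against controls.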

common ragweed [1] = assay: Test C pre-/postemergence test; type: in vivo, Ambrosia elation
How it was run: (§2)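 Compounds in a non-phytotoxic solvent with surfactant applied preemergence to seeded pots and, at the same time, postemergence to plants 2–18 cm tall (1- to 4-leaf stage). Paddy tests: pots flooded to 3 cm, compound applied into the water, depth held throughout.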

naked crabgrass = assay: Test F preemergence test; type: in vivo, Digitaria nuda; settings: scale 0 to 100
How it was run: as §1

green foxtail = assay: Test F preemergence test; type: in vivo, Setaria viridis; settings: scale 0 to 100
How it was run: as §1

yellow nutsedge = assay: Test C pre-/postemergence test; type: in vivo, Cyperus esculentus
How it was run: as §2

purple nutsedge = assay: Test F preemergence test; type: in vivo, Cyperus rotundus; settings: scale 0 to 100
How it was run: as §1

common ragweed [2] = assay: Test F preemergence test; type: in vivo, Ambrosia elation; settings: scale 0 to 100
How it was run: as §1

crabgrass = assay: Test A pre-/postemergence greenhouse test; type: in vivo, Digitaria sanguinalis; settings: for Crabgrass, Large plant response rating: 0 to 100 scale; for Plant response rating, Crabgrass, Large: 0 to 100 scale where 0 is no effect and 100 is complete control
How it was run: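 Two application timings were run side by side in the greenhouse. Before emergence, compound went onto the soil surface of loam–sand pots as a directed spray; after emergence, plants at 2–10 cm and the one- to two-leaf stage were treated. Visual injury versus controls was rated at approximately day ten.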

kochia = assay: Test C pre-/postemergence test; type: in vivo, Kochia scoparia
How it was run: as §2

itchgrass = assay: Test F preemergence test; type: in vivo, Rottboellia cochinchinensis; settings: scale 0 to 100
How it was run: as §1

goosegrass = assay: Test F preemergence test; type: in vivo, Eleusine indica; settings: scale 0 to 100
How it was run: as §1

pitted morningglory = assay: Test F preemergence test; type: in vivo, Ipomoea lacunosa; settings: scale 0 to 100
How it was run: as §1

bermudagrass = assay: Test F preemergence test; type: in vivo, Cynodon dactylon; settings: scale 0 to 100
How it was run: as §1

prickly sida = assay: Test F preemergence test; type: in vivo, Sida spinosa; settings: scale 0 to 100
How it was run: as §1

[3] = 62 g ai/ha, Preemergence, scale 0 to 100
[4] = Preemergence, 31 g ai/ha, scale 0 to 100 (0 no effect, 100 complete control)
[5] = Postemergence, 125 g ai/ha, 0 is no effect, 100 is complete control
[6] = Postemergence, 500 g ai/ha, 0 is no effect, 100 is complete control
[7] = Preemergence, 125 g ai/ha, 0 no effect, 100 complete control
[8] = 31 g ai/ha, Preemergence, scale 0 to 100
[9] = 62 g ai/ha, preemergence, scale 0 (no effect) to 100 (complete control)
[10] = preemergence, 125 g ai/ha, scale 0 (no effect) to 100 (complete control)

## Cc1cc[n+]([O-])c([S+]([O-])Cc2c(C(F)(F)F)nn(C)c2OCC(F)(F)F)c1 (racemic) [Compound 30]
Broadleaf signalgrass; 62 g ai/ha, Preemergence
  Signalgrass plant response rating: 70
Broadleaf signalgrass; 125 g ai/ha, preemergence
  Signalgrass plant response rating: 90
Broadleaf signalgrass; Preemergence
  Plant response rating, Signalgrass: 65
Common ragweed [1]; [3]
  Ragweed plant response rating: 60
Common ragweed [1]; [4]
  Plant response rating, Ragweed: 0
Naked crabgrass; 62 g ai/ha, Preemergence
  Crabgrass, Naked plant response rating: 100
Naked crabgrass; 125 g ai/ha, preemergence
  Crabgrass, Naked plant response rating: 100
Naked crabgrass; Preemergence, 16 g ai/ha
  Plant response rating, Crabgrass, Naked: 80
Naked crabgrass; Preemergence, 31 g ai/ha
  Plant response rating, Crabgrass, Naked: 98
Green foxtail; 62 g ai/ha, Preemergence
  Foxtail, Green plant response rating: 75
Green foxtail; 125 g ai/ha, preemergence
  Foxtail, Green plant response rating: 100
Green foxtail; Preemergence, 16 g ai/ha
  Plant response rating, Foxtail, Green: 15
Green foxtail; Preemergence, 31 g ai/ha
  Plant response rating, Foxtail, Green: 25
Yellow nutsedge; [3]
  Nutsedge, Yellow plant response rating: 70
Yellow nutsedge; [4]
  Plant response rating, Nutsedge, Yellow: 65
Purple nutsedge; 62 g ai/ha, Preemergence
  Purple Nutsedge plant response rating: 70
Purple nutsedge; 125 g ai/ha, preemergence
  Purple Nutsedge plant response rating: 90
Purple nutsedge; Preemergence, 16 g ai/ha
  Plant response rating, Purple Nutsedge: 0
Purple nutsedge; Preemergence, 31 g ai/ha
  Plant response rating, Purple Nutsedge: 40
Common ragweed [2]; 62 g ai/ha, Preemergence
  Ragweed plant response rating: 80
Common ragweed [2]; 125 g ai/ha, preemergence
  Ragweed plant response rating: 95
Common ragweed [2]; Preemergence, 16 g ai/ha
  Plant response rating, Ragweed: 50
Common ragweed [2]; Preemergence, 31 g ai/ha
  Plant response rating, Ragweed: 60
crabgrass; [5]
  Crabgrass, Large plant response rating: 70
crabgrass; [6]
  Crabgrass, Large plant response rating: 90
crabgrass; [7]
  Crabgrass, Large plant response rating: 100
crabgrass; Preemergence, 500 g ai/ha
  Plant response rating, Crabgrass, Large: 100
kochia; [3]
  Kochia plant response rating: 100
kochia; [4]
  Plant response rating, Kochia: 100
itchgrass; 62 g ai/ha, Preemergence
  Itchgrass plant response rating: 70
itchgrass; 125 g ai/ha, preemergence
  Itchgrass plant response rating: 85
itchgrass; Preemergence, 16 g ai/ha
  Plant response rating, Itchgrass: 20
itchgrass; Preemergence, 31 g ai/ha
  Plant response rating, Itchgrass: 25
goosegrass; 62 g ai/ha, Preemergence
  Goosegrass plant response rating: 90
goosegrass; 125 g ai/ha, preemergence
  Goosegrass plant response rating: 98
goosegrass; Preemergence, 16 g ai/ha
  Plant response rating, Goosegrass: 40
goosegrass; Preemergence, 31 g ai/ha
  Plant response rating, Goosegrass: 75
Pitted morningglory; 62 g ai/ha, Preemergence
  Morningglory plant response rating: 90
Pitted morningglory; 125 g ai/ha, preemergence
  Morningglory plant response rating: 100
Pitted morningglory; Preemergence, 16 g ai/ha
  Plant response rating, Morningglory: 20
Pitted morningglory; Preemergence, 31 g ai/ha
  Plant response rating, Morningglory: 60
bermudagrass; 62 g ai/ha, Preemergence
  Bermudagrass plant response rating: 98
bermudagrass; 125 g ai/ha, preemergence
  Bermudagrass plant response rating: 100
bermudagrass; Preemergence, 16 g ai/ha
  Plant response rating, Bermudagrass: 40
bermudagrass; Preemergence, 31 g ai/ha
  Plant response rating, Bermudagrass: 80
Prickly sida; 62 g ai/ha, Preemergence
  Prickly Sida plant response rating: 95
Prickly sida; 125 g ai/ha, preemergence
  Prickly Sida plant response rating: 100
Prickly sida; Preemergence, 16 g ai/ha
  Plant response rating, Prickly Sida: 60
Prickly sida; Preemergence, 31 g ai/ha
  Plant response rating, Prickly Sida: 80

## Cn1nc(C(F)(F)F)c(C[S+]([O-])c2cccc[n+]2[O-])c1Cl (centres unmarked) [Compound 8]
Broadleaf signalgrass; 62 g ai/ha, Preemergence
  Signalgrass plant response rating: 75
Broadleaf signalgrass; 125 g ai/ha, preemergence
  Signalgrass plant response rating: 85
Broadleaf signalgrass; Preemergence
  Plant response rating, Signalgrass: 65
Common ragweed [1]; [8]
  Ragweed plant response rating: 50
Common ragweed [1]; [9]
  Ragweed plant response rating: 60
Common ragweed [1]; Preemergence, 250 g ai/ha
  Plant response rating (0 to 100), Ragweed: 90
Common ragweed [1]; [10]
  Ragweed plant response rating: 60
Naked crabgrass; 62 g ai/ha, Preemergence
  Crabgrass, Naked plant response rating: 90
Naked crabgrass; 125 g ai/ha, preemergence
  Crabgrass, Naked plant response rating: 100
Naked crabgrass; Preemergence, 16 g ai/ha
  Plant response rating, Crabgrass, Naked: 60
Naked crabgrass; Preemergence, 31 g ai/ha
  Plant response rating, Crabgrass, Naked: 75
Green foxtail; 62 g ai/ha, Preemergence
  Foxtail, Green plant response rating: 80
Green foxtail; 125 g ai/ha, preemergence
  Foxtail, Green plant response rating: 90
Green foxtail; Preemergence, 16 g ai/ha
  Plant response rating, Foxtail, Green: 0
Green foxtail; Preemergence, 31 g ai/ha
  Plant response rating, Foxtail, Green: 70
Yellow nutsedge; [8]
  Nutsedge, Yellow plant response rating: 60
Yellow nutsedge; [9]
  Nutsedge, Yellow plant response rating: 80
Yellow nutsedge; Preemergence, 250 g ai/ha
  Plant response rating (0 to 100), Nutsedge, Yellow: 100
Yellow nutsedge; [10]
  Nutsedge, Yellow plant response rating: 100
Purple nutsedge; 62 g ai/ha, Preemergence
  Purple Nutsedge plant response rating: 50
Purple nutsedge; 125 g ai/ha, preemergence
  Purple Nutsedge plant response rating: 65
Purple nutsedge; Preemergence, 16 g ai/ha
  Plant response rating, Purple Nutsedge: 0
Purple nutsedge; Preemergence, 31 g ai/ha
  Plant response rating, Purple Nutsedge: 0
Common ragweed [2]; 62 g ai/ha, Preemergence
  Ragweed plant response rating: 35
Common ragweed [2]; 125 g ai/ha, preemergence
  Ragweed plant response rating: 80
Common ragweed [2]; Preemergence, 16 g ai/ha
  Plant response rating, Ragweed: 0
Common ragweed [2]; Preemergence, 31 g ai/ha
  Plant response rating, Ragweed: 35
crabgrass; [5]
  Crabgrass, Large plant response rating: 80
crabgrass; [6]
  Crabgrass, Large plant response rating: 90
crabgrass; [7]
  Crabgrass, Large plant response rating: 90
crabgrass; Preemergence, 500 g ai/ha
  Plant response rating, Crabgrass, Large: 100
kochia; [8]
  Kochia plant response rating: 40
kochia; [9]
  Kochia plant response rating: 45
kochia; Preemergence, 250 g ai/ha
  Plant response rating (0 to 100), Kochia: 100
kochia; [10]
  Kochia plant response rating: 100
itchgrass; 62 g ai/ha, Preemergence
  Itchgrass plant response rating: 80
itchgrass; 125 g ai/ha, preemergence
  Itchgrass plant response rating: 95
itchgrass; Preemergence, 16 g ai/ha
  Plant response rating, Itchgrass: 0
itchgrass; Preemergence, 31 g ai/ha
  Plant response rating, Itchgrass: 15
goosegrass; 62 g ai/ha, Preemergence
  Goosegrass plant response rating: 80
goosegrass; 125 g ai/ha, preemergence
  Goosegrass plant response rating: 100
goosegrass; Preemergence, 16 g ai/ha
  Plant response rating, Goosegrass: 0
goosegrass; Preemergence, 31 g ai/ha
  Plant response rating, Goosegrass: 70
Pitted morningglory; 62 g ai/ha, Preemergence
  Morningglory plant response rating: 0
Pitted morningglory; 125 g ai/ha, preemergence
  Morningglory plant response rating: 35
Pitted morningglory; Preemergence, 16 g ai/ha
  Plant response rating, Morningglory: 0
Pitted morningglory; Preemergence, 31 g ai/ha
  Plant response rating, Morningglory: 0
bermudagrass; 62 g ai/ha, Preemergence
  Bermudagrass plant response rating: 75
bermudagrass; 125 g ai/ha, preemergence
  Bermudagrass plant response rating: 90
bermudagrass; Preemergence, 16 g ai/ha
  Plant response rating, Bermudagrass: 0
bermudagrass; Preemergence, 31 g ai/ha
  Plant response rating, Bermudagrass: 15
Prickly sida; 62 g ai/ha, Preemergence
  Prickly Sida plant response rating: 70
Prickly sida; 125 g ai/ha, preemergence
  Prickly Sida plant response rating: 90
Prickly sida; Preemergence, 16 g ai/ha
  Plant response rating, Prickly Sida: 20
Prickly sida; Preemergence, 31 g ai/ha
  Plant response rating, Prickly Sida: 20
